Laboratory results from ChEMBL document CHEMBL3596129, “Osthol and curcumin as inhibitors of human Pgp and multidrug efflux pumps of Staphylococcus aureus: reversing the resistance against frontline antibacterial drugs” (Medchemcomm, 2014).

Assays:
[1] = target: T1, ATP-dependent translocase ABCB1 (Homo sapiens, UniProt P08183); assay: Inhibition of P-gp in human LS180 cells after 90 mins by rhodamine123 cell exclusion method; assay type: cell-based
Staphylococcus aureus [2] = assay: Inhibition of TetK overexpressed in Staphylococcus aureus K2192 assessed as tetracycline MIC at 25 uM after 24 hrs by broth checkerboard method (reference value: 32 ug/ml)
[3] = target: T1, ATP-dependent translocase ABCB1; assay: Inhibition of P-gp in human LS180 cells at 50 uM after 90 mins by rhodamine123 cell exclusion method; assay type: cell-based; conditions: ls180, 1.5 h
[4] = target: T2, Fluoroquinolone resistance protein (Staphylococcus aureus) (UniProt A0A0C5K5S3); assay: Inhibition of MdeA overexpressed in Staphylococcus aureus Mupr-1 assessed as decrease in mupirocin MIC at 25 uM after 24 hrs by broth checkerboard method relative to control
T2 sequence (whole entry): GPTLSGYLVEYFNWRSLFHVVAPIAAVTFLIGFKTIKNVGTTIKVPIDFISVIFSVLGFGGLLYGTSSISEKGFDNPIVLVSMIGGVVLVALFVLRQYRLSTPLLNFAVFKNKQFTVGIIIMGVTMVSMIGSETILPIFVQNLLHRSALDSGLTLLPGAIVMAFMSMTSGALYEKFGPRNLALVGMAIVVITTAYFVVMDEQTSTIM

Staphylococcus aureus [5] = assay: Inhibition of MsrA overexpressed in Staphylococcus aureus K2191 assessed as erythromycin MIC at 25 uM after 24 hrs by broth checkerboard method (reference value: 64 ug/ml)
[6] = target: T3, Quinolone resistance protein NorA (Staphylococcus aureus) (UniProt P0A0J7); assay: Inhibition of NorA overexpressed in Staphylococcus aureus SA1199B assessed as decrease in ciprofloxacin MIC at 25 uM after 24 hrs by broth checkerboard method relative to control
T3 sequence (whole entry): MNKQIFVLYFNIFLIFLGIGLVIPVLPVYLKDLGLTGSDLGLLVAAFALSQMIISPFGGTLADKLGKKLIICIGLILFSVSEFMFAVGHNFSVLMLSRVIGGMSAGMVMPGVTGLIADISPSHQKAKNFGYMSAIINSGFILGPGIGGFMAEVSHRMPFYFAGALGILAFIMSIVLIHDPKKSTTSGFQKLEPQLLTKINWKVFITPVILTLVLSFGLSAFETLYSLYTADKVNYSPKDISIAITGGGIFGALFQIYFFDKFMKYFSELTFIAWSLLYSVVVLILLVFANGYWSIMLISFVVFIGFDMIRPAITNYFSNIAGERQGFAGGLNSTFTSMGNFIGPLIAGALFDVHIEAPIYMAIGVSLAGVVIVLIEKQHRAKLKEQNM

[7] = target: T3, Quinolone resistance protein NorA (Staphylococcus aureus); assay: Inhibition of NorA overexpressed in Staphylococcus aureus SA1199B assessed as ciprofloxacin MIC at 25 uM after 24 hrs by broth checkerboard method (reference value: 8 ug/ml)
[8] = target: T2, Fluoroquinolone resistance protein (Staphylococcus aureus); assay: Inhibition of MdeA overexpressed in Staphylococcus aureus Mupr-1 assessed as mupirocin MIC at 25 uM after 24 hrs by broth checkerboard method (reference value: 256 ug/ml)
Staphylococcus aureus [9] = assay: Inhibition of MsrA overexpressed in Staphylococcus aureus K2191 assessed as decrease in erythromycin MIC at 25 uM after 24 hrs by broth checkerboard method relative to control
Staphylococcus aureus [10] = assay: Inhibition of TetK overexpressed in Staphylococcus aureus K2192 assessed as decrease in tetracycline MIC at 25 uM after 24 hrs by broth checkerboard method relative to control
[11] = target: T3, Quinolone resistance protein NorA (Staphylococcus aureus); assay: Inhibition of NorA overexpressed in Staphylococcus aureus SA1199B assessed as ciprofloxacin MIC at 50 uM after 24 hrs by broth checkerboard method (reference value: 8 ug/ml)
Staphylococcus aureus [12] = assay: Inhibition of TetK overexpressed in Staphylococcus aureus K2192 assessed as tetracycline MIC at 50 uM after 24 hrs by broth checkerboard method (reference value: 32 ug/ml)
Staphylococcus aureus [13] = assay: Inhibition of MsrA overexpressed in Staphylococcus aureus K2191 assessed as erythromycin MIC at 50 uM after 24 hrs by broth checkerboard method (reference value: 64 ug/ml)
[14] = target: T2, Fluoroquinolone resistance protein (Staphylococcus aureus); assay: Inhibition of MdeA overexpressed in Staphylococcus aureus Mupr-1 assessed as decrease in mupirocin MIC at 50 uM after 24 hrs by broth checkerboard method relative to control
[15] = target: T2, Fluoroquinolone resistance protein (Staphylococcus aureus); assay: Inhibition of MdeA overexpressed in Staphylococcus aureus Mupr-1 assessed as mupirocin MIC at 50 uM after 24 hrs by broth checkerboard method (reference value: 256 ug/ml)
Staphylococcus aureus [16] = assay: Inhibition of TetK overexpressed in Staphylococcus aureus K2192 assessed as decrease in tetracycline MIC at 50 uM after 24 hrs by broth checkerboard method relative to control
Staphylococcus aureus [17] = assay: Inhibition of MsrA overexpressed in Staphylococcus aureus K2191 assessed as decrease in erythromycin MIC at 50 uM after 24 hrs by broth checkerboard method relative to control
[18] = target: T3, Quinolone resistance protein NorA (Staphylococcus aureus); assay: Inhibition of NorA overexpressed in Staphylococcus aureus SA1199B assessed as decrease in ciprofloxacin MIC at 50 uM after 24 hrs by broth checkerboard method relative to control
P-gp [19] = assay: Substrate activity at P-gp in human Caco2 cells assessed as apparent permeability across basolateral to apical side at 10 uM after 90 mins by HPLC with mass spectrometric method; assay type: ADME, cell-based; conditions: Caco-2
P-gp [20] = assay: Substrate activity at P-gp in human Caco2 cells assessed as efflux ratio of apparent permeability across basolateral to apical side over apical to basolateral side at 10 uM after 90 mins by HPLC with mass spectrometric method; assay type: ADME, cell-based; conditions: Caco-2
CYP3A4 = CYP3A4 (Homo sapiens, UniProt P08684); assay: Inhibition of human CYP3A4 at 10 uM preincubated for 10 mins with cofactor followed by mixture of enzyme-substrate addition by fluorescence assay relative to control; assay type: ADME
CYP3A4, sequence (P08684 whole entry): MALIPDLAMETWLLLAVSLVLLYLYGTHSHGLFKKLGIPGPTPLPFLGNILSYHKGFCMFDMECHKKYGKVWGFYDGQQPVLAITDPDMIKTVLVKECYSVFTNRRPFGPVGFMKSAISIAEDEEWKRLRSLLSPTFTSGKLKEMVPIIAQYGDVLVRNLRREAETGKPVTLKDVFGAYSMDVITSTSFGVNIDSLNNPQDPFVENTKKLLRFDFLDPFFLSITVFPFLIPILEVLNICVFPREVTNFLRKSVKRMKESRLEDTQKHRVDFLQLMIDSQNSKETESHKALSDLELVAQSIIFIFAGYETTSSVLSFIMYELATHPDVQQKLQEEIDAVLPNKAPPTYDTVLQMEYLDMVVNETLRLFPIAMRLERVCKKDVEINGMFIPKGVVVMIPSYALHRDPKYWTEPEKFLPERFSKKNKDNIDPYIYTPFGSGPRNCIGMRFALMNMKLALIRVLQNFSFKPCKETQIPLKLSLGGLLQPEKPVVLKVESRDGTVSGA

CYP2D6 = CYP2D6 (Homo sapiens, UniProt P10635); assay: Inhibition of human CYP2D6 at 10 uM preincubated for 10 mins with cofactor followed by mixture of enzyme-substrate addition by fluorescence assay relative to control; assay type: ADME
CYP2D6, sequence (P10635 whole entry): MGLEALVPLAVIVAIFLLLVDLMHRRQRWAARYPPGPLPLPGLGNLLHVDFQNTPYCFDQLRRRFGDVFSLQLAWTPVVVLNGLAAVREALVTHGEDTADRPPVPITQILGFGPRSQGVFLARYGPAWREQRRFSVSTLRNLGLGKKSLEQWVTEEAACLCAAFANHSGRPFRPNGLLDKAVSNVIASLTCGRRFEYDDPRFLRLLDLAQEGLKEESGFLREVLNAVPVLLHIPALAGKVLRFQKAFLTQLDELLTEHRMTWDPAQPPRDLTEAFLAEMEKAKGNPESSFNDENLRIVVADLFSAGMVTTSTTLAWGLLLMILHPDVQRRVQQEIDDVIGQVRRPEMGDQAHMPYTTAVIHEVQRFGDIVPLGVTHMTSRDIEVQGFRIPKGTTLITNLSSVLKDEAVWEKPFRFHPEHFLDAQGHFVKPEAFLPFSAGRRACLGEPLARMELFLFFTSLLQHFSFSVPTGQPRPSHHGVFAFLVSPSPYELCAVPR

CYP2C9 = CYP2C9 (Homo sapiens, UniProt P11712); assay: Inhibition of human CYP2C9 at 10 uM preincubated for 10 mins with cofactor followed by mixture of enzyme-substrate addition by fluorescence assay relative to control; assay type: ADME
CYP2C9, sequence (P11712 whole entry): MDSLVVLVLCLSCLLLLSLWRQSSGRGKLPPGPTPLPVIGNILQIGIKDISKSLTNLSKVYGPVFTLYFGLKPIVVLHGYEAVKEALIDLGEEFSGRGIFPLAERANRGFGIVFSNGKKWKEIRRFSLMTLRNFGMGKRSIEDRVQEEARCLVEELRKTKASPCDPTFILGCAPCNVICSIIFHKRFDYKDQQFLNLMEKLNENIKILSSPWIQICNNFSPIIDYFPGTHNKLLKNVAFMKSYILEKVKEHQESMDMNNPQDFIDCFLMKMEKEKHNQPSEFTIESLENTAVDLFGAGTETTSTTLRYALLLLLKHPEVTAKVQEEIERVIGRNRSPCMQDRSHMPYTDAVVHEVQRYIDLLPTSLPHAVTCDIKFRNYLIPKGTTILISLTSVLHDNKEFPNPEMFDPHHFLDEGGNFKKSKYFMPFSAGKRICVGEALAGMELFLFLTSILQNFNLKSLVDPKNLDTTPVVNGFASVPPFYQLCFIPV

[21] = target: T3, Quinolone resistance protein NorA (Staphylococcus aureus); assay: Inhibition of NorA overexpressed in Staphylococcus aureus SA1199B assessed as decrease in ciprofloxacin MIC at 12.5 uM after 24 hrs by broth checkerboard method relative to control
Staphylococcus aureus [22] = assay: Inhibition of MsrA overexpressed in Staphylococcus aureus K2191 assessed as erythromycin MIC at 12.5 uM after 24 hrs by broth checkerboard method (reference value: 64 ug/ml)
Staphylococcus aureus [23] = assay: Inhibition of TetK overexpressed in Staphylococcus aureus K2192 assessed as decrease in tetracycline MIC at 12.5 uM after 24 hrs by broth checkerboard method relative to control
Staphylococcus aureus [24] = assay: Inhibition of TetK overexpressed in Staphylococcus aureus K2192 assessed as tetracycline MIC at 12.5 uM after 24 hrs by broth checkerboard method (reference value: 32 ug/ml)
[25] = target: T2, Fluoroquinolone resistance protein (Staphylococcus aureus); assay: Inhibition of MdeA overexpressed in Staphylococcus aureus Mupr-1 assessed as mupirocin MIC at 12.5 uM after 24 hrs by broth checkerboard method (reference value: 256 ug/ml)
[26] = target: T3, Quinolone resistance protein NorA (Staphylococcus aureus); assay: Inhibition of NorA overexpressed in Staphylococcus aureus SA1199B assessed as ciprofloxacin MIC at 12.5 uM after 24 hrs by broth checkerboard method (reference value: 8 ug/ml)
Staphylococcus aureus [27] = assay: Inhibition of MsrA overexpressed in Staphylococcus aureus K2191 assessed as decrease in erythromycin MIC at 12.5 uM after 24 hrs by broth checkerboard method relative to control
[28] = target: T2, Fluoroquinolone resistance protein (Staphylococcus aureus); assay: Inhibition of MdeA overexpressed in Staphylococcus aureus Mupr-1 assessed as decrease in mupirocin MIC at 12.5 uM after 24 hrs by broth checkerboard method relative to control

Structure (SMILES) | IC50 [1] [µM] | MIC (Staphylococcus aureus [2]) [µg/mL] | inhibition (INH) [3] | fold change (FC) [4] | MIC (Staphylococcus aureus [5]) [µg/mL] | fold change (FC) [6] | MIC [7] [µg/mL] | MIC [8] [µg/mL] | fold change (FC) (Staphylococcus aureus [9]) | fold change (FC) (Staphylococcus aureus [10]) | other results
C/C=C(\C)C(=O)OC1c2c(ccc3ccc(=O)oc23)OC(C)(C)C1OC(=O)/C(C)=C/C (stereo not given) | 16 | 32 | Not Active | 0 | 64 | 2 | 4 | 256 | 0 | 0 | 
CC(=O)Oc1cc(OC(C)=O)c2ccc(=O)oc2c1CC=C(C)C | 44 | 16 | Not Active | 0 | 16 | 2 | 4 | 256 | 4 | 2 | 
CC(C)=CCc1c(O)cc(O)c2ccc(=O)oc12 |  | 32 | Not Active | 0 | 64 | 2 | 4 | 256 | 0 | 0 | 
C=CC(C)(C)c1cc2cc3c(cc2oc1=O)OC(C)(C)C=C3 | 15 | 16 | Not Active | 0 | 64 | 4 | 2 | 256 | 0 | 2 | 
CCC/C=C1\OC(=O)C2CC3CCC12C1(OC(=O)C2=C1CCCC2)C3CCC (stereo not given) |  |  | Not Active |  |  |  |  |  |  |  | MIC [11]: 8 µg/mL; MIC (Staphylococcus aureus [12]): 32 µg/mL; MIC (Staphylococcus aureus [13]): 64 µg/mL; fold change (FC) [14]: 0; MIC [15]: 256 µg/mL; fold change (FC) (Staphylococcus aureus [16]): 0; fold change (FC) (Staphylococcus aureus [17]): 0; fold change (FC) [18]: 0
O=C(/C=C/C=C/c1ccc2c(c1)OCO2)N1CCCCC1 |  | 32 |  | 0 | 64 | 2 | 4 | 256 | 0 | 0 | 
COc1cc(/C=C/C(=O)CC(=O)/C=C/c2ccc(O)c(OC)c2)ccc1O [CURCUMIN] | 62 | 32 | Not Active | 0 | 64 | 8 | 1 | 256 | 0 | 0 | 
C[C@H]1O[C@@H](O[C@H]2[C@@H](O)C[C@H](O[C@H]3[C@@H](O)C[C@H](O[C@H]4CC[C@@]5(C)[C@H](CC[C@@H]6[C@@H]5C[C@@H](O)[C@]5(C)[C@@H](C7=CC(=O)OC7)CC[C@]65O)C4)O[C@@H]3C)O[C@@H]2C)C[C@H](O)[C@@H]1O [DIGOXIN] |  |  |  |  |  |  |  |  |  |  | Papp B→A at 1.5 h, 10 µM (P-gp [19]): 12.4 ×10⁻⁶ cm/s; efflux ratio at 1.5 h, 10 µM (P-gp [20]): 41.5
CC(=O)N1CCN(c2ccc(OCC3COC(Cn4ccnc4)(c4ccc(Cl)cc4Cl)O3)cc2)CC1 (stereo not given) [KETOCONAZOLE] |  |  |  |  |  |  |  |  |  |  | inhibition at 10 µM (CYP3A4): 95.2%
CC(C)=CCc1c(O)ccc2ccc(=O)oc12 [OSTHENOL] |  |  | Not Active |  |  |  |  |  |  |  | MIC [11]: 2 µg/mL; MIC (Staphylococcus aureus [12]): 32 µg/mL; MIC (Staphylococcus aureus [13]): 64 µg/mL; fold change (FC) [14]: 0; MIC [15]: 256 µg/mL; fold change (FC) (Staphylococcus aureus [16]): 0; fold change (FC) (Staphylococcus aureus [17]): 0; fold change (FC) [18]: 4
Fc1ccc([C@@H]2CCNC[C@H]2COc2ccc3c(c2)OCO3)cc1 [PAROXETINE] |  |  |  |  |  |  |  |  |  |  | inhibition at 10 µM (CYP2D6): 96.5%
CC(C)=CCOc1c2occc2cc2ccc(=O)oc12 [PENTOSALEN] | 28 | 32 | Not Active | 2 | 64 | 2 | 4 | 128 | 0 | 0 | 
COc1c2ccoc2c(OCC=C(C)C)c2oc(=O)ccc12 [PHELLOPTERIN] | 32 | 32 | Not Active | 0 | 32 | 2 | 4 | 256 | 2 | 0 | 
COc1c(C(=O)/C=C(\O)c2ccccc2)ccc2occc12 [PONGAMOL] | 88 | 32 | Not Active | 0 | 64 | 2 | 4 | 256 | 0 | 0 | 
Nc1ccc(S(=O)(=O)Nc2ccnn2-c2ccccc2)cc1 [SULFAPHENAZOLE] |  |  |  |  |  |  |  |  |  |  | inhibition at 10 µM (CYP2C9): 93.7%
COc1ccc(-c2cc(=O)c3c(OC)c(OC)c(OC)c(OC)c3o2)cc1 [TANGERETIN] |  |  | Not Active |  |  | 2 |  |  |  |  | fold change (FC) [21]: 2; MIC (Staphylococcus aureus [22]): 32 µg/mL; fold change (FC) (Staphylococcus aureus [23]): 0; MIC (Staphylococcus aureus [24]): 32 µg/mL; MIC [25]: 128 µg/mL; MIC [26]: 4 µg/mL; fold change (FC) (Staphylococcus aureus [27]): 2; fold change (FC) [28]: 2
